Reference: patent US12661384B2, “Methods for inducing cell division of postmitotic cells” (priority 2015, dated 2026)

Tested on: Human embryonic stem cell-derived cardiomyocytes
Test: Screen of factor cocktails: PHH3 staining and total nuclei
Format: cell-based
Procedure: To determine an optimal cocktail of factors for inducing cell proliferation and/or cell cycle reentry of human postmitotic cardiomyocytes, combinations of factors were screened. […] Cells were treated with combinations of CDK1AF, CDK4, CCNB1, CCND1, AURKB or GFP control adenovirus, with or without combinations of TGF-βi (SB431542, “SB”), a […] (MK1775, “MK”), and IGF1. Analysis was performed to identify cocktails of factors that increased the number of cells undergoing mitosis as assessed by increased phospho-histone H3 staining at 4-, 8-, and 12-days after treatment with factor cocktails. FIG. 10, panel A. Analysis was also performed to identify which cocktails of factors had the highest cell survival as assessed by the increase in total number of nuclei. FIG. 10, panel B.

Compound	replacement of factors in the cocktail (activation of CDK1 with small molecule)	cell survival (total number of nuclei) (4, 8 and 12 days after treatment)
C=CCn1c(=O)c2cnc(Nc3ccc(N4CCN(C)CC4)cc3)nc2n1-c1cccc(C(C)(C)O)n1 [MK1775]	could replace CDK1 and CCNB1 from the cocktail	
NC(=O)c1ccc(-c2nc(-c3ccc4c(c3)OCO4)c(-c3ccccn3)[nH]2)cc1 [SB431542]		enhanced survival
